Laboratory results as given in article PMC6767236, “Selective Cannabinoid 2 Receptor Agonists as Potential Therapeutic Drugs for the Treatment of Endotoxin-Induced Uveitis” (Molecules, 2019).
≈ marks a conversion by molar mass, not a printed value. Like-named read-outs stand apart in the source and are kept apart here.

Legend:
human CB2R = target: T1, human CB2R (Homo sapiens, UniProt P34972); assay: PathHunter β-arrestin recruitment assay, hCB2R; format: cell-based
T1 construct: bgal (beta-galactosidase fragment of the PathHunter system, named only in the cell line's name); host or cells: CHO-K1 (CHOK1hCB2_bgal)
T1 sequence (P34972 whole entry, the tested form may be a part): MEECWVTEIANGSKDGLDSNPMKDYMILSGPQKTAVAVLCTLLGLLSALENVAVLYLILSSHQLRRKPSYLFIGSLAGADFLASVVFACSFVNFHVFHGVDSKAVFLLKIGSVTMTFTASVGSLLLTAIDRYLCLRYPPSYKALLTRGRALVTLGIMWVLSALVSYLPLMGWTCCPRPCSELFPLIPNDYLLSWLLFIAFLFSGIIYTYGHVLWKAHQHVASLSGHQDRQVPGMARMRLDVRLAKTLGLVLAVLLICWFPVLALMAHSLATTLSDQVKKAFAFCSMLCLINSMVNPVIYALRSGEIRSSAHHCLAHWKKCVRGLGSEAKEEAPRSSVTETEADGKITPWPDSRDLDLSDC
Experimental: (§1) Assays were carried out using the PathHunter hCB1_bgal, hCB2_bgal, or mCB2_bgal CHOK1 β-arrestin recruitment assay kit (DiscoveRx, Fremont, CA, USA) as previously described. A total of 5000 cells per well were seeded in 384-well plates (Perkin Elmer, MA, USA) containing 20 μL cell culture medium and incubated for 16–18 h at 37 °C and 5% CO2. Cells were stimulated with 10 μM of each agonist or 11 increasing concentrations and incubated for 90 min at 37 °C and 5% CO2. […] The cells were incubated for 90 min at 37 °C and 5% CO2. Compounds in DMSO stock solutions were added using a HP D300 Digital Dispenser (Tecan, Mannedorf, Switzerland). The final concentration of organic solvent per assay point was ≤ 0.1%. The PathHunter Detection mixture was used, according to the manufacturer’s protocol, to determine the β-galactosidase enzyme activity. Detection mixture, 12 μL per well, was added and the plate was incubated for 1 h in the dark at room temperature. Chemiluminescence, indicated as relative light unit, was measured on an EnVision multilabel plate reader (Perkin Elmer, MA, USA).

[1] = Saturation (thermodynamic) solubility in buffer, FaSSIF, FeSSIF; format: physicochemical; conditions: thermodynamic from solid
Experimental: (§2) Saturation Solubility (= Thermodynamic Solubility)
(§3) Approximately 8.6 mg test compound per milliliter solvent/vehicle was stirred in HPLC vials (9 × 12 × 32 mm, Waters) at 350 rpm for 15 h. Samples of 10 µL each were taken and microscopically examined for presence of solid particles. If the active pharmacological ingredient (API) dissolved completely, more solid API was added, and stirring was continued for another 15 h. Addition of solid material was repeated up to 96 h or until residual solid particles could be detected. Samples of 0.5 mL were then transferred to Eppendorf Ultrafree filter tubes (Filter: PVDF 0.22 µm) and centrifuged at 14,500 rpm for 10 min. The filtrates were diluted in ethanol and analyzed for content by UPLC. The measurements were also conducted in 0.05 M aqueous phosphate buffer, fasted (FaSSIF), and fed (FeSSIF) simulated gastrointestinal fluid. […]

CYP3A4 = CYP3A4 (Homo sapiens, UniProt P08684); assay: Cytochrome P450 inhibition assay, CYP3A4; format: in vitro ADME; conditions: read-out: IC50 CYP3A4
Chain of CYP3A4 (P08684 whole entry): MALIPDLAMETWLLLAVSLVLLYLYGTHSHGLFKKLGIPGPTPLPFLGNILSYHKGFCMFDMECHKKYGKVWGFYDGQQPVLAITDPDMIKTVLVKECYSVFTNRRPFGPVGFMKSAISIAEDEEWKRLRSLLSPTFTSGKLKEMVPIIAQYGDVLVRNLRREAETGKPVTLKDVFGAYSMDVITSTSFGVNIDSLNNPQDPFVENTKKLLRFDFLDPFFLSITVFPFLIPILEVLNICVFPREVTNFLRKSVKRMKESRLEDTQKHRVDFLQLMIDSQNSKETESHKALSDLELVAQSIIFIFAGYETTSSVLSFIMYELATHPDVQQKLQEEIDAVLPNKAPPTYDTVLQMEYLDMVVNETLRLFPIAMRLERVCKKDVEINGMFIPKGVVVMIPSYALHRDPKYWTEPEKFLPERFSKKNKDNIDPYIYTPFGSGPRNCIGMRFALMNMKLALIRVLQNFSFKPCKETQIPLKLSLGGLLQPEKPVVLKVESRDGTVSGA

[2] = Saturation solubility in selected solvents/vehicles; format: physicochemical; conditions: for solubility: thermodynamic from solid, n = 1
Experimental: as §2, §3

[3] = design: method as in earlier work; conditions: mouse, i.v., 0.5-1 mg/kg; * previously published; cited from earlier work
[4] = cited from earlier work
human P-gp = conditions: cited from earlier work
mouse CB2R [5] = target: T2, mouse CB2R (Mus musculus, UniProt P47936); assay: biochemical; format: binding; design: bgal (beta-galactosidase fragment of the PathHunter system, named only in the cell line's name); host or cells: CHO-K1 (CHOK1mCB2_bgal); conditions: species ratio of binding affinity
T2 sequence (P47936 whole entry, the tested form may be a part): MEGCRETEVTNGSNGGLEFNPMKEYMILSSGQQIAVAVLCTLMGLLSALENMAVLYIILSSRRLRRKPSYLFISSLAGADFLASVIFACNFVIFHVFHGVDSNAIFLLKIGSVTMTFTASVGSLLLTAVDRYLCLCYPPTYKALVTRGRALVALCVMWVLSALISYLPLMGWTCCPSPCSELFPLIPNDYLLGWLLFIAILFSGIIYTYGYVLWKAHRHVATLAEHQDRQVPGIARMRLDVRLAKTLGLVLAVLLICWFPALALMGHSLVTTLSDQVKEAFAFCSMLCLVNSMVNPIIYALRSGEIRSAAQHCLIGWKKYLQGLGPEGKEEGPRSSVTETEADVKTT
Experimental: Membrane fractions were prepared from cultured CHOK1hCB1_bgal, CHOK1hCB2_bgal, and CHOK1mCB2_bgal cells (DiscoveRx, Fremont, CA, USA) as previously described. Protein concentration was determined using the Pierce bicinchoninic acid (BCA) protein assay (Rochford, IL, USA) as per the manufacturer’s instructions.
Radio ligand-binding assays were carried out as described by Souethoudt et al. (2018). Briefly, membranes from cells expressing human CB2R or CB1R or mouse CB2R and the radioligand, [^3H]-CP55940 (Perkin Elmer, Basel, Switzerland) was used. […] Membrane aliquots containing 5 µg (CHOK1hCB1_bgal) or 1 µg (CHOK1hCB2_bgal) of membrane protein in 100 µL assay buffer (50 mMTris-HCl, 5 mM MgCl2, 0.1% bovine serum albumin (BSA), pH 7.4) were incubated at 30 °C for 1 h, in presence of 3.5 nM of [^3H]-CP55940 (CHOK1hCB1_bgal) or 1.5 nM [^3H]-CP55940 (CHOK1hCB2_bgal). The incubation was terminated by rapid filtration performed on glass microfibre (GF/C) filters (Whatman International, Maidstone, UK), presoaked for 30 min with 0.25% polyethyleneimine (PEI), and using a Brandel harvester (Brandel, Gaithersburg, MD, USA). Filter-bound radioactivity was determined by scintillation spectrometry using a Tri-Carb 2900 TR liquid scintillation counter (Perkin Elmer, Boston, MA, USA). For mouse experiments, spleens were collected as previously described and resuspended in 2 mM Tris-EDTA, 320 mM sucrose, 5 mM MgCl2 (pH 7.4). Tissue was homogenized with a Potter homogenizer and centrifuged three times at 1000× g (10 min). The supernatants were centrifuged at 18,000× g (30 min), and the pellets were resuspended in assay buffer (50 mM Tris-HCl, 2 mM Tris-EDTA, 3 mM MgCl2, pH 7.4). These membrane fractions were used in rapid filtration assays with 400 pM of [^3H]-CP55,940. In all receptor binding experiments, nonspecific binding was determined in the presence of 1 µM “cold” agonist.

mouse CB2R [6] = target: T2, mouse CB2R; assay: cell-based; format: cell-based; design: bgal (beta-galactosidase fragment of the PathHunter system, named only in the cell line's name); host or cells: CHO-K1 (CHOK1mCB2_bgal)
Experimental: as §1

[7] = solubility sample, RO6871085 as hydrochloride salt

Question: Which “functional behaviour in hCB2R β-arrestin assay” value (human CB2R) does the source give for `Cc1nc([C@](C)(CC2CC2)NC(=O)c2cc(OCC(F)(F)F)c(C3CC3)cn2)no1` [RO6871085, 5-Cyclopropyl-N-[(2S)-1-cyclopropyl-2-(5-methyl-1,2,4-oxadiazol-3-yl)propan-2-yl]-4-(2,2,2-trifluoroethoxy)pyridine-2-carboxamide] here?
Answer: partial agonist

Question: And the “hCB1R beta arrestin EC50/hCB2R beta arrestin EC50” value (human CB2R)?
Answer: >545

Question: And the “hCB2R: beta arrestin efficacy” value (human CB2R)?
Answer: 51%

Question: And the EC50 (human CB2R; read-out: hCB2R: beta arrestin EC50)?
Answer: 0.055 µM

Question: What about the solubility thermodynamic ([1]; FaSSIF pH 6.5, read-out: Thermodynamic Solubility in FaSSIF (pH 6.5)) of the same compound?
Answer: 37 µg/mL (≈ 87.2 µM)

Question: And the solubility thermodynamic ([1]; FeSSIF pH 5.5, read-out: Thermodynamic Solubility in FeSSIF (pH 5.5))?
Answer: 56 µg/mL (≈ 132 µM)

Question: And the solubility thermodynamic ([1]; aqueous phosphate buffer pH 6.5, read-out: Thermodynamic Solubility in Aqueous Buffer (pH 6.5))?
Answer: 3 µg/mL (≈ 7.07 µM)

Question: And the IC50 (CYP3A4)?
Answer: 37 µM

Question: And the “solubility in Tocrisolve 100” value [2]?
Answer: good solvent

Question: What about the solubility ([2]; aqueous with cosolvent or surfactant or cyclodextrin, RO6871085 as hydrochloride salt, HU308 crystalline material, > = saturation not achieved, read-out: Solubility in Tocrisolve) of the same compound?
Answer: > 30000 µg/mL

Question: What about the solubility ([2]; oil or lipid, RO6871085 as hydrochloride salt, HU308 crystalline material, > = saturation not achieved, read-out: Solubility in MCT (Miglyol 812)) of the same compound?
Answer: 2300 µg/mL

Question: What about the solubility ([2]; pH 6, aqueous with cosolvent or surfactant or cyclodextrin, 200 mM glycocholic acid, 200 mM lecithin in water for injection, pH 6, RO6871085 as hydrochloride salt, read-out: Solubility in Mixed Micelles) of the same compound?
Answer: 200 µg/mL

Question: What about the “pH of solution in Mixed Micelles” value [2, 7] of the same compound?
Answer: 6.1

Question: And the “pH of solution in Tocrisolve” value [2, 7]?
Answer: 1.2

Question: And the “AUCINF D” value [3]?
Answer: 1412 ng·kg·h/mL/mg

Question: What about the “Clearance (CL)” value [3] of the same compound?
Answer: 11.8 mL/min/kg

Question: And the T1/2 [3]?
Answer: 4.15 h

Question: And the Vss [3]?
Answer: 4.0 L/kg

Question: And the “PAMPA Peff” value ([4]; * at end of cell: previously published)?
Answer: 2.44 10*-6 cm/s

Question: And the “PAMPA %Acceptor” value ([4]; * previously published)?
Answer: 2%

Question: And the “PAMPA %Donor” value ([4]; * previously published)?
Answer: 20%

Question: And the “PAMPA %Membrane” value ([4]; * previously published)?
Answer: 78%

Question: What about the “P-glycoprotein-Mediated Efflux Extraction Ratio human” value (human P-gp; human P-gp, * previously published) of the same compound?
Answer: 1.4

Question: And the “P-gp substrate, human” value (human P-gp; underlying data previously published)?
Answer: not a P-gp substrate

Question: And the “hCB2R Ki/mouse CB2R Ki” value (mouse CB2R [5])?
Answer: 13

Question: What about the “activity in mouse CB2R β-arrestin assay” value (mouse CB2R [6]) of the same compound?
Answer: not active

Question: What about the EC50 (mouse CB2R [6]; read-out: mouse CB2R: beta arrestin EC50) of the same compound?
Answer: > 30 µM
